The NIST ThermoML archive (doi:10.1016/j.jct.2004.12.005)

Legend:
[1] = 298.15 K; 101.33 kPa; Liquid
[2] = excess molar enthalpy (molar enthalpy of mixing); xn = mol fraction of the nth substance listed; conditions: 298.15 K, 101.3 kPa, Liquid, Flow calorimetry

COC(C)(C)C [2-methoxy-2-methylpropane]
Conditions | mass density [kg/m3]
[1] | 735.99

COC(C)(C)C [2-methoxy-2-methylpropane] + C1CCOC1
[2]
Conditions | excess molar enthalpy [kcal/mol]
x2 = 0.1015 | 0.0082
x2 = 0.1924 | 0.0143
x2 = 0.2745 | 0.0186
x2 = 0.3482 | 0.0216
x2 = 0.4173 | 0.0234
x2 = 0.4784 | 0.0244
x2 = 0.5358 | 0.0248
x2 = 0.5883 | 0.0243
x2 = 0.6368 | 0.0233
x2 = 0.6821 | 0.0221
x2 = 0.7242 | 0.0206
x2 = 0.7626 | 0.0188
x2 = 0.7994 | 0.0168
x2 = 0.8338 | 0.0146
x2 = 0.8655 | 0.0123
x2 = 0.8799 | 0.0112
x2 = 0.9246 | 0.00739
x2 = 0.9507 | 0.00473
x2 = 0.9761 | 0.00241

CC1CCCO1 (configuration not stated) [2-methyltetrahydrofuran]
Conditions | mass density [kg/m3]
[1] | 848.1

CC1CCCO1 (configuration not stated) [2-methyltetrahydrofuran] + COC(C)(C)C
[2]
Conditions | excess molar enthalpy [kcal/mol]
x1 = 0.0499 | 0.00159
x1 = 0.0998 | 0.00298
x1 = 0.1498 | 0.00424
x1 = 0.2002 | 0.00541
x1 = 0.2501 | 0.00635
x1 = 0.3004 | 0.00717
x1 = 0.3504 | 0.00788
x1 = 0.4001 | 0.00821
x1 = 0.4501 | 0.00859
x1 = 0.5007 | 0.00875
x1 = 0.5495 | 0.00884
x1 = 0.5999 | 0.00859
x1 = 0.6501 | 0.00815
x1 = 0.7002 | 0.00753
x1 = 0.7508 | 0.00673
x1 = 0.8 | 0.00582
x1 = 0.8509 | 0.00473
x1 = 0.9 | 0.00338
x1 = 0.95 | 0.00184

CCCCCCCCCCCC [dodecane]
Conditions | mass density [kg/m3]
[1] | 745.38

C1CCOC1 [tetrahydrofuran]
Conditions | mass density [kg/m3]
[1] | 882.09
